Test results: ChEMBL document CHEMBL1201862, “PubChem BioAssay data set” (2004)
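Values below derive from 48-hour exposures of cells grown in 96-well plates, with endpoints linearly interpolated between the two concentrations bracketing the appropriate inhibition level. Here, GI50 denotes the concentration required for 50% inhibition of growth.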 Active and inactive are the calls of the source. No stated cut-off is given here; in the data, active = GI50 up to about 1.1 µM and inactive = higher.

How the values were obtained:
Experiment in all cases: inhibition of tumour cell growth, NCI panel, 48 h
A498 = test system: A498
SNB-19 = test system: SNB-19
U-251 = test system: U-251
EKVX = test system: EKVX
HCT-15 = test system: HCT-15
SF-539 = test system: SF-539
786-0 = test system: 786-0
SK-MEL-5 = test system: SK-MEL-5
SK-OV-3 = test system: SK-OV-3
MDA-N = test system: MDA-N
ACHN = test system: ACHN
MDA-MB-435 = test system: MDA-MB-435
OVCAR-4 = test system: OVCAR-4
NCI-H226 = test system: NCI-H226
SN12C = test system: SN12C
Malme-3M = test system: Malme-3M
HCC 2998 = test system: HCC 2998
SNB-75 = test system: SNB-75
MOLT-4 = test system: MOLT-4
SR = test system: SR

Compound	GI50 (A498)	GI50 (SNB-19)	GI50 (U-251)	GI50 (EKVX)	GI50 (HCT-15)	GI50 (SF-539)	GI50 (786-0)	GI50 (SK-MEL-5)	GI50 (SK-OV-3)	GI50 (MDA-N)	GI50 (ACHN)	GI50 (MDA-MB-435)	GI50 (OVCAR-4)	GI50 (NCI-H226)	GI50 (SN12C)	GI50 (Malme-3M)	GI50 (HCC 2998)	GI50 (SNB-75)	GI50 (MOLT-4)	GI50 (SR)
C[C@H]1O[C@@H](c2c(O)ccc3ccccc23)C[C@@H](N(C)C)C1O (stereo not given in full)	51.9 µM (inactive)	> 100 µM (inactive)	> 100 µM (inactive)	> 100 µM (inactive)	> 100 µM	> 100 µM (inactive)	91.6 µM (inactive)	40.4 µM (inactive)	> 100 µM (inactive)	> 100 µM (inactive)	> 100 µM (inactive)	> 100 µM (inactive)	> 100 µM (inactive)	43.7 µM (inactive)	> 100 µM (inactive)	48 µM (inactive)	36.6 µM (inactive)	43.8 µM (inactive)		
COc1cc(C)c(/C=C/C(=O)N2C(=O)OC[C@@H]2c2ccccc2)c(C)c1	52.5 µM (inactive)	> 100 µM (inactive)	> 100 µM (inactive)	98.9 µM (inactive)	74 µM	> 100 µM (inactive)	> 100 µM (inactive)	60.8 µM (inactive)	> 100 µM (inactive)	> 100 µM (inactive)	> 100 µM (inactive)	> 100 µM (inactive)	81.3 µM (inactive)	> 100 µM (inactive)	> 100 µM (inactive)	> 100 µM (inactive)	73.1 µM (inactive)	34.3 µM (inactive)	31.1 µM (inactive)	
Cc1ccc(-c2n[nH]c(=O)n2NC(=O)c2ccccc2C(=O)O)cc1		> 100 µM (inactive)	> 100 µM (inactive)		> 100 µM	> 100 µM (inactive)	> 100 µM (inactive)	> 100 µM (inactive)		> 100 µM (inactive)	> 100 µM (inactive)	> 100 µM (inactive)		> 100 µM (inactive)	> 100 µM (inactive)	> 100 µM (inactive)	> 100 µM (inactive)	> 100 µM (inactive)	> 100 µM (inactive)	> 100 µM (inactive)
Clc1ccc(C(c2ccc(Cl)cc2)c2cncnc2)cc1		18.1 µM (inactive)	17.3 µM (inactive)	> 10 µM (inactive)	19.6 µM		17.3 µM (inactive)	13.2 µM (inactive)	16 µM (inactive)	14.2 µM (inactive)	19.2 µM (inactive)	13.7 µM (inactive)	15.2 µM (inactive)		18.4 µM (inactive)	19.1 µM (inactive)			20.6 µM (inactive)	31.8 µM (inactive)
COC(=O)C1=C(C)NC(C)=C(C(=O)OC)C1c1ccc(/[N+]([O-])=C/c2ccccc2)cc1		94.2 µM (inactive)	> 100 µM (inactive)	71.6 µM (inactive)	42.5 µM	> 100 µM (inactive)	17.3 µM (inactive)	> 100 µM (inactive)	> 100 µM (inactive)	34.4 µM (inactive)	17.4 µM (inactive)	30.4 µM (inactive)	17.3 µM (inactive)	62.4 µM (inactive)	51.5 µM (inactive)	17.3 µM (inactive)	> 100 µM (inactive)	34.9 µM (inactive)	24.1 µM (inactive)	24.1 µM (inactive)
COc1ccccc1/C=C1\Sc2scc(-c3ccc(O)c(O)c3)[n+]2C1=O		35.8 µM (inactive)	27.8 µM (inactive)	46.6 µM (inactive)	16.5 µM	20.7 µM (inactive)	15.2 µM (inactive)	18.1 µM (inactive)	21.4 µM (inactive)	23.9 µM (inactive)	16.7 µM (inactive)	27.2 µM (inactive)	26.8 µM (inactive)	27.9 µM (inactive)	22.5 µM (inactive)		16.6 µM (inactive)		13.9 µM (inactive)	6.67 µM (inactive)
c1ccc(Cn2c(-c3ccc(-c4ccccc4)cc3)cc3ccccc32)cc1		> 100 µM (inactive)	> 100 µM (inactive)	> 100 µM (inactive)	> 100 µM	> 100 µM (inactive)	> 100 µM (inactive)	> 100 µM (inactive)	> 100 µM (inactive)	> 100 µM (inactive)	> 100 µM (inactive)	> 100 µM (inactive)	> 100 µM (inactive)	> 100 µM (inactive)	> 100 µM (inactive)	60 µM (inactive)	> 100 µM (inactive)	58.1 µM (inactive)	> 100 µM (inactive)	> 100 µM (inactive)
CC(C)(NO)/C(=N\O)c1ccccc1		> 10 µM (inactive)	> 10 µM (inactive)	> 10 µM (inactive)	> 10 µM		> 10 µM (inactive)			> 10 µM (inactive)	> 10 µM (inactive)	> 10 µM (inactive)	> 10 µM (inactive)	> 10 µM (inactive)	> 10 µM (inactive)	> 10 µM (inactive)	> 10 µM (inactive)		> 10 µM (inactive)	> 10 µM (inactive)
CCSc1c(C)c2c(n(Cc3ccc(OC)cc3)c1=O)Cc1ccccc1C2		18.2 µM (inactive)	15 µM (inactive)	21.4 µM (inactive)	4.52 µM	19.2 µM (inactive)	11 µM (inactive)	15.4 µM (inactive)	39.5 µM (inactive)	10.4 µM (inactive)	10.3 µM (inactive)	25.1 µM (inactive)	21.4 µM (inactive)	36.5 µM (inactive)	12.8 µM (inactive)	10.8 µM (inactive)	13.6 µM (inactive)	21.9 µM (inactive)	2.53 µM (inactive)	3.61 µM (inactive)
CN1N=C(c2ccncc2)OC1c1cccc(C(F)(F)F)c1 (stereo not given)	> 100 µM (inactive)	> 100 µM (inactive)	> 100 µM (inactive)	> 100 µM (inactive)	> 100 µM	27.5 µM (inactive)	> 100 µM (inactive)	> 100 µM (inactive)	> 100 µM (inactive)	> 100 µM (inactive)	> 100 µM (inactive)	> 100 µM (inactive)	> 100 µM (inactive)	58.9 µM (inactive)	> 100 µM (inactive)		> 100 µM (inactive)	4.36 µM (inactive)	> 100 µM (inactive)	
Cc1ccc(-c2c(C#N)c(-c3ccc([N+](=O)[O-])cc3)c(C#N)c(=O)n2NS(=O)(=O)c2ccc(C)cc2)cc1	67.8 µM (inactive)	56.6 µM (inactive)	44.8 µM (inactive)	47.5 µM (inactive)	41.6 µM	38.1 µM (inactive)	65 µM (inactive)	19.8 µM (inactive)	36.6 µM (inactive)	75.9 µM (inactive)	51.9 µM (inactive)	86.9 µM (inactive)	41.5 µM (inactive)	> 100 µM (inactive)	50 µM (inactive)	96.4 µM (inactive)	29.4 µM (inactive)	74.5 µM (inactive)	19.8 µM (inactive)	
Cc1nc(-c2cc3cc([N+](=O)[O-])ccc3oc2=O)cs1		> 100 µM (inactive)	> 100 µM (inactive)	> 100 µM (inactive)	> 100 µM	> 100 µM (inactive)	> 100 µM (inactive)	> 100 µM (inactive)	> 100 µM (inactive)	> 100 µM (inactive)	> 100 µM (inactive)	> 100 µM (inactive)	> 100 µM (inactive)	> 100 µM (inactive)	> 100 µM (inactive)		> 100 µM (inactive)	1.25 µM (inactive)	> 100 µM (inactive)	71.3 µM (inactive)
Oc1c(/N=N\c2ccccc2)c2cccc3ccc4cccc1c4c32	> 100 µM (inactive)	> 100 µM (inactive)	42.7 µM (inactive)	> 100 µM (inactive)	> 100 µM		43.7 µM (inactive)	> 100 µM (inactive)	> 100 µM (inactive)	> 100 µM (inactive)	26.8 µM (inactive)	> 100 µM (inactive)	43.2 µM (inactive)	> 100 µM (inactive)	> 100 µM (inactive)	> 100 µM (inactive)		38.6 µM (inactive)	> 100 µM (inactive)	20.9 µM (inactive)
CC(=O)NCC1OC2COC(c3ccccc3)OC2C(NC(=O)c2ccccc2)C1OC(=O)c1ccccc1 (stereo not given)	44.5 µM (inactive)	> 100 µM (inactive)	> 100 µM (inactive)	> 100 µM (inactive)	> 100 µM	> 100 µM (inactive)	> 100 µM (inactive)	> 100 µM (inactive)	> 100 µM (inactive)	> 100 µM (inactive)	> 100 µM (inactive)	> 100 µM (inactive)	> 100 µM (inactive)	> 100 µM (inactive)	60.3 µM (inactive)	> 100 µM (inactive)	> 100 µM (inactive)	> 100 µM (inactive)	86.7 µM (inactive)	
CN(C)c1ccc(/C=C2\N=C(N/N=C/c3ccc(N(C)C)cc3)NC2=O)cc1	26.8 µM (inactive)	> 100 µM (inactive)	52.1 µM (inactive)	> 100 µM (inactive)	30.8 µM		> 100 µM (inactive)	44.4 µM (inactive)	> 100 µM (inactive)	> 100 µM (inactive)	> 100 µM (inactive)	> 100 µM (inactive)	> 100 µM (inactive)	> 100 µM (inactive)	> 100 µM (inactive)	> 100 µM (inactive)	> 100 µM (inactive)	> 100 µM (inactive)	92 µM (inactive)	
CC(C)(Br)C(=O)C(Br)Br	> 39.8 µM (inactive)	19.7 µM (inactive)	> 28 µM (inactive)	13.8 µM (inactive)		> 33.2 µM (inactive)	13.8 µM (inactive)	12.4 µM (inactive)	17.5 µM (inactive)	5.3 µM (inactive)	10.5 µM (inactive)	5.58 µM (inactive)	5.09 µM (inactive)	16.7 µM (inactive)	> 24.4 µM (inactive)	2.01 µM (inactive)	17.1 µM (inactive)	13.7 µM (inactive)	1.67 µM (inactive)	
